The structures appear in SMILES notation. pIC50: −log10 of the molar value.

For this assay, the target named is T1, Renin (Homo sapiens, UniProt P00797).
T1 sequence (P00797 whole entry): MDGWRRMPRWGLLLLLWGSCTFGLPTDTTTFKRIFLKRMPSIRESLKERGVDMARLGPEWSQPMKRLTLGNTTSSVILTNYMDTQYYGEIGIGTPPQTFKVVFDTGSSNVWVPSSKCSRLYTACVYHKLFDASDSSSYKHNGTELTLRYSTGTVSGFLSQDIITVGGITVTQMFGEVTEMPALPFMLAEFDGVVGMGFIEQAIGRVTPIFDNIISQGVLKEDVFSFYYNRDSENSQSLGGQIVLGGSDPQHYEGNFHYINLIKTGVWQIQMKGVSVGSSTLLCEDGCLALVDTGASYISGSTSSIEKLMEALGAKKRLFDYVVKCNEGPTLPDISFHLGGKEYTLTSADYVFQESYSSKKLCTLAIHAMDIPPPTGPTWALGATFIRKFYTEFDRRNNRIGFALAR
Put plainly: Inhibitory activity against human plasma renin. It counts as cell-free.
As to `CC[C@H](C)[C@H](NC(=O)C(F)(F)[C@H](N)[C@H](CC(C)C)NC(=O)[C@H](Cc1cnc[nH]1)NC(=O)[C@H](Cc1ccccc1)NC(=O)OC(C)(C)C)C(=O)NCc1ccccn1`, the pIC50 was 6.47. As to `CC[C@H](C)[C@H](NC(=O)C[C@@H](O)[C@H](CC(C)C)NC(=O)[C@H](Cc1c[nH]cn1)NC(=O)[C@H](Cc1ccccc1)NC(=O)OC(C)(C)C)C(=O)NCc1ccccn1`, the pIC50 is 6.48.

Take `CC[C@H](C)[C@H](NC(=O)C[C@@H](N)[C@H](CC(C)C)NC(=O)[C@H](Cc1c[nH]cn1)NC(=O)[C@H](Cc1ccccc1)NC(=O)OC(C)(C)C)C(=O)NCc1ccccn1`: the pIC50 is 6.32. The result for `CC[C@H](C)[C@H](NC(=O)C(F)(F)[C@@H](N)[C@H](CC(C)C)NC(=O)[C@H](Cc1cnc[nH]1)NC(=O)[C@H](Cc1ccccc1)NC(=O)OC(C)(C)C)C(=O)NCc1ccccn1` reads 5.55; that for `CC[C@H](C)[C@H](NC(=O)C[C@H](N)[C@H](CC(C)C)NC(=O)[C@H](Cc1c[nH]cn1)NC(=O)[C@H](Cc1ccccc1)NC(=O)OC(C)(C)C)C(=O)NCc1ccccn1`, 7.82.

(Values after ChEMBL document CHEMBL1123618, “alpha,alpha-Difluoro-beta-aminodeoxystatine-containing renin inhibitory peptides” (J Med Chem, 1987).)
